# Data as given in paper PMC4425353 (Science (New York, N.Y.), 2015).
# Assays:
# [1] = molecular target: T1, LBP-8 (Caenorhabditis elegans, UniProt O02324); test: fluorescence displacement of […],8-ANS; type: binding
# T1 sequence (O02324 1-137): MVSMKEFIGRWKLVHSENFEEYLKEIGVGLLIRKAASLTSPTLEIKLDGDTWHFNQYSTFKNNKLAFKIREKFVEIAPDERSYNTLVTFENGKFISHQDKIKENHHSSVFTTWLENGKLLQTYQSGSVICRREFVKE
# [2] = molecular target: T2, NHR-80 (Caenorhabditis elegans, UniProt Q8ITW8); test: intrinsic fluorescence quenching of GST-NHR-80 with increasing OEA; type: binding
# T2 sequence (Q8ITW8 1-504): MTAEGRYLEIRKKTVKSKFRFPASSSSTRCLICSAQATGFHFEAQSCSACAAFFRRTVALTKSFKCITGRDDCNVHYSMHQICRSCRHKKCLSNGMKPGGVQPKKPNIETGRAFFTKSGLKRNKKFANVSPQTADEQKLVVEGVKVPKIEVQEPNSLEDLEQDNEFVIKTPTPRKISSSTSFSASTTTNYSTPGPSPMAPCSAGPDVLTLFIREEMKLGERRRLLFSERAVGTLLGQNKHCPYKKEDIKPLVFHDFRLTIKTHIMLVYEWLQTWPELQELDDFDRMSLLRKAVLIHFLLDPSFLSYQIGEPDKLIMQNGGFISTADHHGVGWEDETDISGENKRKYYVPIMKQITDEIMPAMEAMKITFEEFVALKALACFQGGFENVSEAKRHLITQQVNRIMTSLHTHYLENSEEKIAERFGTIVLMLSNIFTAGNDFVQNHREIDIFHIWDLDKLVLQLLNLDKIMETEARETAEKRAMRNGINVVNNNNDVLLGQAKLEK
Kd [2] [µM],SMILES,"fluorescence displacement of 1,8-ANS [1]"
,"CCCCC/C=C\C/C=C\C/C=C\C/C=C\CCCC(=O)O [AA, arachidonic acid]","In fluorescence-based binding assays, all four lipids bound to LBP-8"
,"CCCCC/C=C\C/C=C\C/C=C\CCCCCCC(=O)O [DGLA, dihomo-γ-linolenic acid]","In fluorescence-based binding assays, all four lipids bound to LBP-8"
7.84,"CCCCCCCC/C=C\CCCCCCCC(=O)NCCO [OEA, oleoylethanolamide]",
,"CC/C=C\C/C=C\C/C=C\C/C=C\CCCCCCC(=O)O [ω-3 AA, ω-3 arachidonic acid]","In fluorescence-based binding assays, all four lipids bound to LBP-8"
